Paper PMC9845330 (Communications Biology, 2023)
Non-standard residues stand in square brackets, D forms with d. Residues, ends and D or L forms follow the SMILES beside them. *: point of attachment. X1 = O=C(CCCC[C@@H]1SC[C@@H]2NC(=O)N[C@@H]21)NCCCOCCOCCOCCCN*; PEG12 = NCCOCCOCCOCCOCCOCCOCCOCCOCCOCCOCCOCCOCCC(=O)O

Experiments:
[1] = tested on: normal human bronchial epithelial cell line (HBEC); experiment: Cell internalization by flow cytometry in normal control cells; format: cell-based; conditions: 50 nM, 1 h
Source text: Optimizing MGS4 as a monomer is efficient but the optimal valency of the truncated peptide may be different than that of the full-length peptide. The peptide was synthesized as a monomer (MGS4_V8), dimer (MGS4_V9), and tetramer (MGS4_V10). To obtain quantitative data, we moved from measuring the relative fluorescence of dye-labeled peptide to the determination of the average number of dye molecules internalized per cell. […] The dimer MGS4_V9 has an EC50 7-fold lower indicating there is a synergistic effect in going from a monomer to a dimer (Fig. 2a and Table 2). However, there is only a 2-fold decrease in going from a dimer to a tetrameric peptide (MGS4_V10). We also calculated the EC50 on three other NSCLC cell lines (Table 2 and Supplementary Figure 3). […]
Non-internalized peptide was removed, and the mean number of peptides internalized per cell was determined to calculate the EC50. […] Error bars, in black, represent standard error measurements and are below the height of the symbols in some cases. b The average number of peptide molecules per cell at 50 nM at 1 h was determined on four NSCLC cell lines and one normal human bronchial epithelial cell line (HBEC). […]
Biotinylated peptide was conjugated to streptavidin-R-phycoerythrin or streptavidin-Alexa Fluor 647 (1:1 molar ratio) for 30 min. […] Flow cytometry was performed on a BD FACSCelesta, and data were analyzed on Flowing software. […]

H2009 cells = experiment: Cell internalization by flow cytometry, absolute uptake (molecules per cell); format: cell-based, human; conditions: for Molecules Internalized Per Cell: Average
Source text: (§1) Optimizing MGS4 as a monomer is efficient but the optimal valency of the truncated peptide may be different than that of the full-length peptide. The peptide was synthesized as a monomer (MGS4_V8), dimer (MGS4_V9), and tetramer (MGS4_V10). To obtain quantitative data, we moved from measuring the relative fluorescence of dye-labeled peptide to the determination of the average number of dye molecules internalized per cell. […] The dimer MGS4_V9 has an EC50 7-fold lower indicating there is a synergistic effect in going from a monomer to a dimer (Fig. 2a and Table 2). However, there is only a 2-fold decrease in going from a dimer to a tetrameric peptide (MGS4_V10). We also calculated the EC50 on three other NSCLC cell lines (Table 2 and Supplementary Figure 3). […] The average number of peptides internalized per cell at saturating conditions varies, with H1993 cells internalizing the highest number of peptides at all three valencies (Table 2). This is likely due to differing levels of receptor expression on the cell type. The average molecules internalized at 50 nM in one hour follows the same trend (Fig. 2b).
(§2) Biotinylated peptide was conjugated to streptavidin-R-phycoerythrin or streptavidin-Alexa Fluor 647 (1:1 molar ratio) for 30 min. The open binding sites on streptavidin were quenched with RPMI 1640 and diluted to the indicated concentration. Tumor cells were grown to 90% confluency in a 12 well plate, then incubated with 500 µl peptide-dye conjugate at 37 °C. After 1 h, peptide was removed, and the cells were washed 3x with PBS (137 mM NaCl, 2.7 mM KCl, 10 mM Na2HPO4, 1.8 mM KH2PO4, pH 7.4), 2x with 0.1 M HCl-glycine pH2.2 in 0.9% NaCl, and 1x PBS rinse. Cells were removed by trypsinization. Flow cytometry was performed on a BD FACSCelesta, and data were analyzed on Flowing software. Cells were gated based on the forward and side scatter to include only viable cells and a minimum of 10,000 events were counted. A region containing <5% of the cells in the negative control was established, and relative peptide uptake by the mean fluorescence intensity of that population. For absolute peptide uptake per cell, a standard curve was generated using Quantum™ Alexa Fluor 647 microspheres (Bangs Laboratory, Fishers, IN). A representative linear regression showing the correlation of molecule equivalents soluble fluorophores (MESF) vs the mean fluorescence intensity (MFI) is shown in Supplemental Figure 6. Cells were gated based on the forward and side scatter to include only viable cells and a minimum of 10,000 events were counted. MFI was determined at 50% at peak height. Molecules internalized per cell were determined by the standard curve relating MESF to MFI and divided by the number dye molecules/MGS conjugate. An example is shown in supplemental Figure 7. GraphPad Prism® was used for non-linear regression curve fitting to calculate an EC50. Parameters and statistical analysis are provided (Supplementary Tables 2–6). Experiments were repeated a minimum of three times.
(§3) For all EC50 determinations, each peptide variant was tested on the indicated cell line with a minimum of 3 biological replicates and analyzed individually by flow cytometry. The standard error measurement for each concentration is indicated by error bars in the figures. For experiments in which absolute number of molecules internalized was measured at different concentrations, EC50 were determined by GraphPad Prism® using nonlinear regression curve fitting for log(agonist) vs. response–Variable slope (four parameters). For the truncation experiments, EC50 were determined using one-site-specific binding. Similarly, IC50s were calculated using GraphPad Prism® using log(agonist) vs. response–Variable slope (four parameters). A minimum of four biological replicates were performed for each variant and cell line. Data for individual experiments are included in supplementary files. Parameters and statistical analysis are provided in Supplementary Tables 2–7. […]

H1993 cells = experiment: as above; format: cell-based, human; conditions: for Molecules Internalized Per Cell: Average
Source text: as §1, §2, §3

H358 cells = experiment: as above; format: cell-based, human; conditions: for Molecules Internalized Per Cell: Average
Source text: as §1, §2, §3

CC(=O)N[C@@H](Cc1ccccc1)C(=O)N[C@@H](Cc1c[nH]cn1)C(=O)N[C@@H](C)C(=O)N[C@H](C(=O)N1CCC[C@H]1C(=O)N[C@@H](CCC(N)=O)C(=O)N[C@@H](CO)C(=O)N[C@@H](Cc1ccccc1)C(=O)N[C@@H](Cc1ccc(O)cc1)C(=O)N[C@H](C(=O)NCCOCCOCCOCCOCCOCCOCCOCCOCCOCCOCCOCCOCCC(=O)N[C@@H](CCC(=O)NCCCOCCOCCOCCCNC(=O)CCCC[C@@H]1SC[C@@H]2NC(=O)N[C@@H]21)C(N)=O)[C@@H](C)O)C(C)C [MGS4_V8] (Ac-FHAVPQSFYT[PEG12]E(X1)-NH2)
internalization in normal cells [1]: minimal internalization | Molecules Internalized Per Cell (H2009 cells; 1 nM): 0 | Molecules Internalized Per Cell (H2009 cells; 10 nM): 1006 | Molecules Internalized Per Cell (H2009 cells; 20 nM): 3516 | Molecules Internalized Per Cell (H2009 cells; 30 nM): 15550 | Molecules Internalized Per Cell (H2009 cells; 40 nM): 22008 | Molecules Internalized Per Cell (H2009 cells; 50 nM): 28764 | Molecules Internalized Per Cell (H2009 cells; 60 nM): 30384 | Molecules Internalized Per Cell (H2009 cells; 80 nM): 38906 | Saturation (molecules) (H2009 cells; H2009 Cells): 40,600 ± 2630 molecules | HillSlope (H2009 cells; Supplementary Table 4): 3.175 | LogIC50 (H2009 cells; Supplementary Table 4): -7.424 | Top (H2009 cells; Supplementary Table 4): 40633 | Molecules Internalized Per Cell (H1993 cells; 0.01 nM): 0 | Molecules Internalized Per Cell (H1993 cells; 1 nM): 57 | Molecules Internalized Per Cell (H1993 cells; 10 nM): 3584 | Molecules Internalized Per Cell (H1993 cells; 20 nM): 36850 | Molecules Internalized Per Cell (H1993 cells; 30 nM): 42262 | Molecules Internalized Per Cell (H1993 cells; 40 nM): 55296 | Molecules Internalized Per Cell (H1993 cells; 50 nM): 88510 | Molecules Internalized Per Cell (H1993 cells; 60 nM): 76327 | Saturation (molecules) (H1993 cells; H1993 Cells): 119,000 ± 57,500 molecules | HillSlope (H1993 cells; Supplementary Table 6): 1.706 | LogIC50 (H1993 cells; Supplementary Table 6): -7.427 | Top (H1993 cells; Supplementary Table 6): 118643 | Molecules Internalized Per Cell (H358 cells; 0.01 nM): 0 | Molecules Internalized Per Cell (H358 cells; 0.1 nM): 11 | Molecules Internalized Per Cell (H358 cells; 1 nM): 140 | Molecules Internalized Per Cell (H358 cells; 5 nM): 2481 | Molecules Internalized Per Cell (H358 cells; 10 nM): 4840 | Molecules Internalized Per Cell (H358 cells; 20 nM): 25103 | Molecules Internalized Per Cell (H358 cells; 30 nM): 36064 | Molecules Internalized Per Cell (H358 cells; 40 nM): 47392 | Molecules Internalized Per Cell (H358 cells; 50 nM): 58761 | Molecules Internalized Per Cell (H358 cells; 60 nM): 66918 | Molecules Internalized Per Cell (H358 cells; 80 nM): 68326 | Saturation (molecules) (H358 cells; H358 Cells): 85,500 ± 39600 molecules | HillSlope (H358 cells; Supplementary Table 5): 1.829 | LogIC50 (H358 cells; Supplementary Table 5): -7.470 | Top (H358 cells; Supplementary Table 5): 85477 | stable in human serum for: > 48 h
